Test system: RAW264.7 cells
Assay: LXR target, cytokine and SENP gene expression in LPS-stimulated RAW264.7 cells
Type: cell-based, mouse
Procedure: FIGS. 3A-3D: Comparison with LXR agonist. […] FIGS. 3C and 3D show log 2 fold change of SENP3 expression in RAW264.7 cells mRNAseq and q-PCR.
Quantitative RT-PCR: Total RNA was extracted from EL4 or RAW264.7 cells using RNeasy Plus Micro Kit (Qiagen) and the RNA was reverse transcribed using the ABI reverse transcription kit (Applied Biosystems/Thermo Fisher Scientific, Waltham MA). Quantitative PCR was performed with a 7900HT Fast Real Time PCR System (Applied Biosystems) using SYBR green (Roche).
mRNA sequencing analysis: RAW264.7 cells RNA extraction protocol for RNA seq was derived from Qiagen Kit-74106. Total RNA was quantified using the Qubit 2.0 Fluorometer (Invitrogen, Carlsbad, CA) and run on the Agilent 2100 Bioanalyzer (Agilent Technologies, Santa Clara, CA) for quality assessment. RNA samples of good quality with RNA Integrity Number (RIN)>8.0 were further processed. A RNase-free working environment was maintained and RNase-free tips, Eppendorf tubes and plates were utilized for the subsequent steps. Messenger RNA was selectively isolated from total RNA (300 ng input) using poly-T oligos attached to magnetic beads and converted to sequence-ready libraries using the TruSeq stranded mRNA sample prep protocol (Cat. #: RS-122-2101, Illumina, San Diego, CA). The final libraries were validated on the bioanalyzer DNA chips and qPCR quantified using primers that recognize the illumina adaptors. The libraries were then pooled at equimolar ratios, quantified using qPCR and loaded onto the NextSeq 500 flow cell at 1.8 pM final concentration. They were sequenced using the high-output, paired-end, 75-bp chemistry. Demultiplexed and quality filtered raw reads (fastq) generated from the NextSeq 500 were trimmed (adaptor sequences) using Flexbar 2.4 and aligned to the mouse reference database (mm9) using TopHat version 2.0.9 (Trapnell et al., 2009). HTseq-count version 0.6.1 was used to generate gene counts and differential gene expression analysis was performed using Deseq2 (Anders and Huber, 2010).

In the case of `Cc1cc(CN2CCN(Cc3ccncc3)CC2)ccc1-c1ccc(C(O)(C(F)(F)F)C(F)(F)F)cc1` [SR1903, 1,1,1,3,3,3-hexafluoro-2-(2′-methyl-4′-((4-(pyridin-4-ylmethyl)piperazin-1-yl)methyl)-[1,1′-biphenyl]-4-yl)propan-2-ol], the “expression of ACACA and FASN” value (LPS-stimulated RAW264.7 cells) is reported as “increased”, the “expression of LXR target genes including ABCG1 and SCD” value (LPS-stimulated RAW264.7 cells, RNA sequencing) is reported as “increased the expression” and the “expression of IL6 and IL33” value (LPS-stimulated RAW264.7 cells, RNA sequencing, confirmed by qPCR) is reported as “robustly dampened”. For the same compound, the “expression of SENP2 and SENP6” value (LPS-stimulated RAW cells, RNA sequencing) was “repressed” and the “expression of SENP3” value (LPS-stimulated RAW cells, RNA sequencing, qPCR) was “increased the expression”.

Source: patent US12370193B2, “Method of inhibiting TREM-1” (UNIVERSITY OF FLORIDA RESEARCH FOUNDATION, INCORPORATED, priority 2019, dated 2025)
